In patent publication EP0446748A2, “Use of perylenedyes for the preparation of write, print or copying materials” (priority 1990, dated 1991):

Assay: Solubility of the dyes in organic solvent, determined after one week of the solution in contact with the solid dye with occasional shaking
Assay type: physicochemical
Details: 10080 min; for Löslichkeit (n-Heptan/20^oC) / Löslichkeit (CHCl₃/20^oC): 20 °C; for Löslichkeit (n-Heptan) / Löslichkeit (CHCl₃): temperature not given
Excerpt: Die Perylenfarbstoffe werden aus technischen Perylen-3,4:9,10-tetracarbonsäurebisanhydrid (2,55 mmol), dem entsprechenden primären Amin oder dem Aminhydrochlorid (6 mmol) und Imidazol (5 g) dargestellt und werden entsprechend der Literatur gereinigt (siehe z.B. Chem. Ber. 118 4641 (1985) und Chem. Ber. 121 225 (1988)). Die Angaben beziehen sich auf die Darstellung von hochreine Farbstoffen. Die Perylenfarbstoffe der allgemeinen Formel I mit R¹ = R² = Hexyl, Dodecyl, Octadecyl, Cycloalkyl bis zu Cyclopentadecyl und sec-Alkyl bis 1-Hexylheptyl sind in Chem. Ber. 121 225 (1988) beschriebn. Die Löslichkeiten der Farbstoffe sind nach einer Woche der Lösung mit dem festen Farbstoff bei gelegentlichem Umschütteln bestimmt worden.

In the case of `CCCCCCCC(CCCCCCC)N1C(=O)c2ccc3c4ccc5c6c(ccc(c7ccc(c2c37)C1=O)c64)C(=O)N(C(CCCCCCC)CCCCCCC)C5=O` [N,N'-Di(1-heptyloctyl)perylen-3,4:9,10-bis(dicarboximid)], the “Löslichkeit (n-Heptan/20^oC)” value was 0.59 g/100ml.

In the case of `CCCCCCCCCCCCCCCCCCC(CCCCCCCCCCCCCCCCCC)N1C(=O)c2ccc3c4ccc5c6c(ccc(c7ccc(c2c37)C1=O)c64)C(=O)N(C(CCCCCCCCCCCCCCCCCC)CCCCCCCCCCCCCCCCCC)C5=O` [N,N'-Di(1-octadecylnonadecyl)perylen-3,4:9,10-bis(dicarboximid)], the “Löslichkeit (n-Heptan)” value was 26 mg/100 ml.

In the case of `CCCCCCCCCCCCCCCCC(CCCCCCCCCCCCCCCC)N1C(=O)c2ccc3c4ccc5c6c(ccc(c7ccc(c2c37)C1=O)c64)C(=O)N(C(CCCCCCCCCCCCCCCC)CCCCCCCCCCCCCCCC)C5=O` [N,N'-Di(1-hexadecylheptadecyl)perylen-3,4:9,10-bis(dicarboximid)], the “Löslichkeit (n-Heptan)” value was 0.13 g/100 ml.

For `CCCCCCCCC(CCCCCCCC)N1C(=O)c2ccc3c4ccc5c6c(ccc(c7ccc(c2c37)C1=O)c64)C(=O)N(C(CCCCCCCC)CCCCCCCC)C5=O` [N,N'-Di(1-octylnonyl)perylen-3,4:9,10-bis(dicarboximid)], the “Löslichkeit (n-Heptan/20^oC)” value was 0.30 g/100ml.

In the case of `CCCCCCCCCCCCC(CCCCCCCCCCCC)N1C(=O)c2ccc3c4ccc5c6c(ccc(c7ccc(c2c37)C1=O)c64)C(=O)N(C(CCCCCCCCCCCC)CCCCCCCCCCCC)C5=O` [N,N'-Di(1-dodecyltridecyl)perylen-3,4:9,10-bis(dicarboximid)], the “Löslichkeit (n-Heptan)” value was 67 mg/100 ml.

In the case of `CCCCN1C(=O)c2ccc3c4ccc5c6c(ccc(c7ccc(c2c37)C1=O)c64)C(=O)N(CCCC)C5=O` [N,N'-Di(1-butyl)perylen-3,4:9,10-bis(dicarboximid)], the “Löslichkeit (CHCl₃/20^oC)” value was 8,9 mg/100 ml.

For `CCCCCN1C(=O)c2ccc3c4ccc5c6c(ccc(c7ccc(c2c37)C1=O)c64)C(=O)N(CCCCC)C5=O` [N,N'-Di(1-pentyl)perylen-3,4:9,10-bis(dicarboximid)], the “Löslichkeit (CHCl₃/20^oC)” value was 47 mg/100 ml.

With `CCCCCCCCCN1C(=O)c2ccc3c4ccc5c6c(ccc(c7ccc(c2c37)C1=O)c64)C(=O)N(CCCCCCCCC)C5=O` [N,N'-Di(n-nonyl)perylen-3,4:9,10-bis(dicarboximid)] the “Löslichkeit (CHCl₃/20^oC)” value was 11 mg/100 ml.

With `CCCCCCCCCCC(CCCCCCCCCC)N1C(=O)c2ccc3c4ccc5c6c(ccc(c7ccc(c2c37)C1=O)c64)C(=O)N(C(CCCCCCCCCC)CCCCCCCCCC)C5=O` [N,N'-Di(1-decylundecyl)Perylen-3,4:9,10-bis(dicarboximid)] the “Löslichkeit (n-Heptan)” value was 4.8 g/100 ml.

For `O=C1c2ccc3c4ccc5c6c(ccc(c7ccc(c2c37)C(=O)N1C1CCCCCCCCCCCCCCC1)c64)C(=O)N(C1CCCCCCCCCCCCCCC1)C5=O` [N,N'-Dicyclohexadecylperylen-3,4:9,10-bis(dicarboximid)], the “Löslichkeit (CHCl₃)” value was 0.56 g/100ml.

In the case of `CCCN1C(=O)c2ccc3c4ccc5c6c(ccc(c7ccc(c2c37)C1=O)c64)C(=O)N(CCC)C5=O` [N,N'-Di(1-Propyl)perylen-3,4:9,10-bis(dicarboximid)], the “Löslichkeit (CHCl₃/20^oC)” value was 5,3 mg/100 ml.

With `CCCCCCCCCCCCCCCCN1C(=O)c2ccc3c4ccc5c6c(ccc(c7ccc(c2c37)C1=O)c64)C(=O)N(CCCCCCCCCCCCCCCC)C5=O` [N,N'-Di(n-hexadecyl)perylen-3,4:9,10-bis(dicarboximid)] the “Löslichkeit (CHCl₃)” value was 6.0 mg/100 ml.

For `CCCCCCCCCCCCCCCCCCN1C(=O)c2ccc3c4ccc5c6c(ccc(c7ccc(c2c37)C1=O)c64)C(=O)N(CCCCCCCCCCCCCCCCCC)C5=O` [N,N'-Di(n-octadecyl)perylen-3,4:9,10-bis(dicarboximid)], the “Löslichkeit (CHCl₃)” value was 1,8 mg/100 ml.

For `CCCCCCCCCCCCCCN1C(=O)c2ccc3c4ccc5c6c(ccc(c7ccc(c2c37)C1=O)c64)C(=O)N(CCCCCCCCCCCCCC)C5=O` [N,N'-Di(n-tetradecyl)perylen-3,4:9,10-bis(dicarboximid)], the “Löslichkeit (CHCl₃)” value was 5.4 mg/100 ml.

With `CCCCCCCCCC(CCCCCCCCC)N1C(=O)c2ccc3c4ccc5c6c(ccc(c7ccc(c2c37)C1=O)c64)C(=O)N(C(CCCCCCCCC)CCCCCCCCC)C5=O` [N,N'-Di(1-nonyldecyl)perylen-3,4:9,10-bis(dicarboximid)] the “Löslichkeit (n-Heptan)” value was 35 g/100 ml.
